Experimental data published in patent publication US20180291070A1, “PEPTIDES, AND USES THEREOF” (priority 2015, published 2018).
Read-outs that look alike come from different tables or passages of the source. Ends that are not written are not given here.

Key:
E. coli ATCC 25922 = experiment: microbe, parasite or virus in culture; assay type: cell-based; details: for zone of inhibition at 64 µg/mL: Escherichia coli, 10 μL at 64 μg/mL on disk, read-out: Inhibition zone diameter (mm)
Experimental: (§1) Blank disks were placed in the plates and 10 μL of each compound (at 64 μg/mL—maximum concentration tested) added.
(§2) After incubation period results were registered and plates photographed.

A. baumannii ATCC 19606 = experiment: antibacterial activity testing in solid media (disk, Mueller-Hinton plates); assay type: cell-based, Acinetobacter baumannii; design: key to Inhibition zone diameter (mm): NI—No Inhibition of growth; details: for zone of inhibition at 64 µg/mL: Acinetobacter baumannii, read-out: Inhibition zone diameter (mm); for zone of inhibition at 64 µg/mL / Inhibition zone diameter (mm): 10 μL at 64 μg/mL on disk
Experimental: as §1, §2

MRSA ATCC 43300 = experiment: microbe, parasite or virus in culture; assay type: cell-based, Methicillin-Resistant Staphylococcus aureus; details: for zone of inhibition at 64 µg/mL: Staphylococcus aureus, 10 μL at 64 μg/mL on disk, read-out: Inhibition zone diameter (mm)
Experimental: as §1, §2

TNF-α = TNF-α secretion by LPS-stimulated THP-1 differentiated macrophages (Biolegend ELISA); assay type: cell-based, human; details: THP-1 differentiated macrophages treated 24 hrs. prior to LPS stimulation
Experimental: TNF-α is secreted by macrophages in response to stimulation by endotoxins such as lipopolysaccharides (LPS). TNF-α is thought to be involved in systemic inflammation and dysregulation of TNF-α production is thought to be involved in many diseases. The Biolegend assay is a sandwich ELISA kit that is designed for the accurate quantitation of human TNF-α from cell culture supernatant, serum or plasma.
THP-1 monocytes were seeded in a 96 well plate at 10,000 cells per well in RPMI containing 10% fetal calf serum (FCS), 1% Pen/strep, 1% L-glutamine, 100 nM PMA and allowed to differentiated for 72 h prior to experimentation.
Following differentiation the cells were incubated with 100 ng/ml, 10 ng/ml or 1 ng/ml synthetic peptide for 24 h respectively.
Following treatment the cells were stimulated with 10 ng/ml LPS for 5 h and the quantity of TNF-α in the supernatant determined using the Biolegend assay ELISA kit.
Results were calculated as a percentage of the untreated control. An increase in optical density reading indicates greater quantity of TNF-α release into cell culture supernatant.
All experiments were prepared in duplicate on three plates (6 wells/conditions). Significance was calculated using Students t-test (*p<0.05 compared to control, **p<0.01 compared to control, *** p<0.001 compared to control).

[1] = system: elastic fibers of the dermis; experiment: morphometric quantification of elastic fibers in skin explants; assay type: cell-based, Human; details: for Morphometric quantification of elastic fibers in the middle dermis (%) / Morphometric quantification of elastic fibers in the superficial dermis (%): applied twice per day, 5 μL per explant
Experimental: (§3) Skin explants were prepared from abdominal plastic surgery. Some explants were delipidated with alcohol to obtain a dehydrated skin.
(§4) These explants were maintained in maintenance medium supplied by the provider Biopredic International for 5 days. Test items are applied twice per day with 5 μL per explant.
(§5) For each time of analysis (D1 and D5), histologies on delipidated explants, treated explants with test items, the DMSO 0.3% control and water control, are performed.
(§6) After receipt in the laboratory, each skin explant in the maintenance medium is delipidated with 5 μL alcohol during 3 hours.
(§7) After 3 hours, all skin explants are treated two per day with test items, and they are incubated at 37° C.+/−2° C., 5% CO2 for 1 day or 5 days.
The immunohistochemical staining intensity in the elastic fibers is evaluated using a semi-quantitative histological score.
The percentage area taken up by elastic fibers in the dermis was calculated in the dermis and the average superficial dermis. Results are presents in Table 4, FIG. 2 and FIG. 3.

[2] = system: keratinocytes of the basal layer of the epidermis; experiment: Ki67 immunohistochemistry (mitotic index) in skin explants; assay type: cell-based, Human
Experimental: as §3, §4, §5, §6, §7
Epithelial proliferation was analyzed by immunohistochemistry using anti-Ki67 antibody. […] Counting the number of labeled cells (keratinocytes of the basal layer of the epidermis) is performed and provides the total number of basal cells to calculate the % of labeled cells.
The results of the immunohistochemical analysis of Ki67 are reported in Table 5 and expressed as % of labelled at the basal layer of the epidermis. The Error! […] Immunohistochemical analysis of mitotic activity is shown in annex 4 with a reminder of the average for each analysed conditions.

GLUT4 = experiment: GLUT4myc translocation in L6 myotubes; assay type: cell-based
From the text: We determined the effect of six synthetic peptides (SP1-6) and four peptide compositions on in vitro GLUT4 translocation using the L6 rat skeletal muscle cell line. A clone of the L6 cell line containing overexpression of GLUT4 tagged with a c-myc epitope (courtesy of Prof. Amira Klip, Hospital for Sick Children, Toronto) was used to investigate the efficacy of each synthetic peptide and peptide composition for effects on GLUT4 translocation in a dose-response design.
L6-GLUT4myc cells were grown in 10% FBS and 2 μg/ml blasticidin. Cells were grown for 48-72 hours before being seeded in 24-well plates at 15,000 cells per well in 2% FBS and allowed to differentiate for 6 to 8 days prior to experimentation.
L6-GLUT4myc cells were serum-starved for three hours prior to incubation with 100 nM of insulin for 30 mins, or 200, 20, 2.0 and 0.2 μM of SP, and 2, 1, 0.5 and 0.25 mg/ml of peptide composition for 3 hours respectively. A 3 hour incubation period was selected based on previous findings identifying that incubation with branch chain amino acid containing di-peptides for 3 hours increases glucose uptake in L6 myotubes 1. Treatments were staggered in order to determine GLUT4myc translocation at the same time point.
The quantity of myc-tagged GLUT4 at the cell surface was measured by antibody-coupled colorimetric assay. Briefly, after incubation with either insulin for 30 mins or synthetic peptide or peptide composition for 3 hours respectively, L6-GLUT4myc cells were fixed via incubation with 3% paraformaldehyde (PFA). A 0.1 M glycine solution was then added to quench PFA and cells were blocked with 5% goat serum. The myotube monolayer was exposed to anti-myc antibody and then incubated with peroxidase conjugated donkey anti-mouse IgG. 1 mL of o-phenylenediamine dihydrochloride (OPD) reagent was added to each well and this reaction was stopped by adding […] of 3 M HCL. To determine GLUT4 translocation to cell surface, a measured aliquot of each condition was determined spectrophotometrically on a plate reader using absorbance at 492 nm.
In addition to an untreated control, 100 nM insulin was utilised to stimulate a maximal GLUT4 translocation response i.e. a positive control in each experiment. […] Treatments were staggered so that all conditions (untreated, insulin and sample) were processed at the same time-point.

[3] = final result, not at the levels of susceptibility

Molecule	Morphometric quantification of elastic fibers in the middle dermis (%) ([1]; D1)	Morphometric quantification of elastic fibers in the superficial dermis (%) ([1]; D1)	Morphometric quantification of elastic fibers in the middle dermis (%) ([1]; D5)	Morphometric quantification of elastic fibers in the superficial dermis (%) ([1]; D5)	% of Ki67 positive cells in the basal layer of the epidermis ([2]; D1) [%]	% of Ki67 positive cells in the basal layer of the epidermis ([2]; D5) [%]	also measured
O=C(O)c1cn(C2CC2)c2cc(N3CCNCC3)c(F)cc2c1=O [CIP, Ciprofloxacin]							zone of inhibition at 64 µg/mL (E. coli ATCC 25922; ATCC25922, Rep 1): 42 mm; zone of inhibition at 64 µg/mL (E. coli ATCC 25922; ATCC25922, Rep 2): 40 mm; zone of inhibition at 64 µg/mL (E. coli ATCC 25922; ATCC25922, Rep 3): 42 mm; zone of inhibition at 64 µg/mL (A. baumannii ATCC 19606; ATCC19606, Rep 1): 27 mm; zone of inhibition at 64 µg/mL (A. baumannii ATCC 19606; ATCC19606, Rep 2): 28 mm; zone of inhibition at 64 µg/mL (A. baumannii ATCC 19606; ATCC19606, Rep 3): 27 mm; zone of inhibition at 64 µg/mL (MRSA ATCC 43300; Rep 1): 27 mm; zone of inhibition at 64 µg/mL (MRSA ATCC 43300; Rep 2): 28 mm; zone of inhibition at 64 µg/mL (MRSA ATCC 43300; Rep 3): 29 mm
DEHQKIHQFR [0723.08]	3.52	2.7	7.27	5.32	27.83	5.72	TNF-α secretion reduced vs. untreated cells (TNF-α): 80%; number of mitotic cells compared to EGF ([2]; day 1): increase
DTFYNAAWDPSNR [SP1, reference compound]							cell viability (GLUT4; 200 μM, L6-GLUT4myc cells): poor cell viability
HPVAITASSNLNLLGFG [0723.02]	11.75	6.09	9.08	7.59	19.61	6.73	TNF-α secretion reduced vs. untreated cells (TNF-α): 80%; elastic fibers in the middle dermis compared to the water control ([1]; D5): increase; elastic fibers in the middle dermis compared to control water ([1]; day 1): increase doubled
LNSQKFPILNLVQLSATR [I_87_SF]							inhibition zone (E. coli ATCC 25922; ATCC 25922): 9-10 mm; inhibitory activity (E. coli ATCC 25922; [3]): some inhibitory activity; Inhibition zone diameter (mm) (A. baumannii ATCC 19606; Rep 1): NI; Inhibition zone diameter (mm) (A. baumannii ATCC 19606; Rep 2): NI; Inhibition zone diameter (mm) (A. baumannii ATCC 19606; Rep 3): NI; inhibitory activity (A. baumannii ATCC 19606; final result): No activity; inhibition zone (MRSA ATCC 43300; agar plates): 18 mm; inhibitory activity (MRSA ATCC 43300; [3]): some inhibitory activity
QQYGIAASPFLQSAA [0723.07]	6.46	4	5.33	5.15	22.22	5.26	
RHGEWRPSY [0723.01]	7.59	4.45	10.17	10.21	18.57	3.92	elastic fibers in the middle dermis compared to the water control ([1]; D5): increase; elastic fibers in the superficial dermis compared to control water ([1]; D5): increase by twice
RPYYSNAPQEIF [0723.04]	5.22	3.28	9	8.94	14.97	11.36	
VLDLAIPVNRPGQL [SP2, glucose transport promoting fragment of Pea Protein P13918, Section C]							GLUT4 translocation (GLUT4; 0.2-2 μM, 3 hours): trend for SP2 to increase GLUT4 translocation; stimulatory effect on skeletal muscle GLUT4 translocation (GLUT4; conclusion of the experiment): trend for stimulatory effect
VLLEQQEQEPQH [0723.05]	8.8	6.34	6.61	6.26	9.48	3.08	
insulin [reference compound]							average increase in cell surface GLUT4 translocation compared to untreated control (GLUT4; 100 nM, 30 mins): 1.72 fold
